US20250035641A1, “COMPOSITIONS AND METHODS RELATED TO PROTEIN LABELING” (The Chinese University of Hong Kong, priority 2023, published 2025)
“Also recorded” adds a separate entry of the source.

Assays:
Format in all cases: cell-based
HTN-BRD4 = biological target: T1, HTN-BRD4 (Homo sapiens, UniProt O60885+P62942, F37V); assay: IP-WB of HTN-BRD4 O-GlcNAcylation (RL2) in HEK293T cells co-expressing fOGT; conditions: for region of induced HTN-BRD4 O-GlcNAcylation: HTN-BRD4:fOGT=1:0.05, truncated/mutant constructs
T1 construct: HaloTag fragment; expressed in transfected cells; host or cells: HEK293T
Experimental: We next assess their potency in inducing HTN-BRD4 O-GlcNAcylation in cell. […]
For each IP reaction, 2.2×10^6 HEK293T cells were seed in 10 cm dish. After cells attached, transfection reagents and plasmids were prepared and added in DMEM. After 24 h transfection, media were replaced by fresh warm complete media with DMSO or probes. For washout study, after 4 h treatment, media with DMSO or OGTAC-4 (500 nM) were replaced by fresh media with DMSO or AP1867 (50 μM) for further incubation. After certain time of OGTACs treatment, cells were collected by cold PBS and lysed by 200 μL complete IP lysis buffer. The lysate was incubated on ice for 20 min, spun down at 14,000 RPM at 4° C. for 15 mins, and the supernatant were collected for bicinchoninic acid (BCA) assay and normalized to a final 2 mg/mL. For input, 20 μL of diluted sample was reacted with equal volume of 10 μM TMR ligand in IP lysis buffer and rotate gently at RT for 15 mins. The remaining samples were subjected to protein A/G magnetic beads (MedChemExpress, HY-K0202), which pre-binding with protein target protein antibody. For samples for LC-MS/MS or HTN-BRD4 mutant constructs. Halo-Trap Magnetic Agarose (Proteintech, otma) was used to incubate with protein lysates. After gentle rotation at 4° C. for at least 16 h, the beads were washed with IP lysis buffer and boiled in 40 μL 2×SDS-loading buffer (Biorad #1610747) for 5 mins to elute proteins from beads. Eluted samples were directly subjected into WB analysis.
(§1) In general, cells (from 12 well plate) were lysed by 80 μl RIPA lysis buffer (Thermo Scientic 89901) supplemented with 20 μM OGA inhibitor (Thaimet G, Bidepharm BD571819) and 100X protease inhibitor (MedChemExpress, HY-K0010), incubated on ice for 20 min, spun down at 14,000 RPM at 4° C. for 15 mins, and the supernatant were collected for bicinchoninic acid (BCA) assay and normalizedeto a final 2 mg/mL concentration. About 30 μg of protein samples were loaded for sodium dodecyl sulfatepolyacrylamide gel electrophoresis (SDS-PADE) and blotted with indicated antibodies.

[1] = biological target: T2, fOGT (FKBP12^F36V fused-OGT) (Homo sapiens, UniProt P62942, F37V); assay: Intact cell CETSA (fOGT engagement); conditions: HEK-293T, 4 h, HEK293T HTN-BRD4:fOGT=1:0.05
T2 construct: expressed in transfected cells; host or cells: HEK293T
Experimental: For fOGT engagement, we established a cellular thermal shift assay (CETSA). Using same co-expressing system, we treated cells with OGTAC 1-3 for 4 h, and conducted heat challenge to intact cells at a series of temperature to determine the corresponding melting temperature (Tm). […] HEK293T cells (2.5×10^6 cells) were seeded in 10 cm culture dish overnight for attachment. On the next day, cells were transfected with HTN-BRD4:fOGT=1:0.05 plasmid for 24 hours until ˜90% confluence. After treatment with 5 μM compounds or DMSO, cells were collected and washed with PBS. Subsequently, cells were re-suspended in 500 μL PBS and equally divided into 50 μL aliquots. The tubes were subjected to heat challenge at 37-53° C. for 5 mins, followed by cooling on ice. Cells were lysed by three repeated freeze-thaw cycles with liquid nitrogen and water bath. Lastly, cells were centrifuged at 14000 RPM for 15 mins and supernatants were collected for Western Blot analysis.

endogenous CK2α = assay: Chemoenzymatic labelling and mass-shift assay, endogenous CK2α; conditions: OGTAC-1 treatment
HTN-EZH2 = assay: O-GlcNAc inducing effects on HTN-EZH2; conditions: HTN-EZH2:fOGT=1:0.01
From the text: FIG. 13: Evaluation of O-GlcNAc inducing effects of OGTAC-1/2/3 on HTN-EZH2 and dose-dependent effect of OGTAC-1 on HTN-EZH2. In the treatment group, transfection ratio is HTN-EZH2:fOGT:=1:0.01.
As there are >20,000 commercially available plasmids for HaloTag-fused human proteins,46 OGTACs can be rapidly tested in a wide range of POIs, enabling time- and dose-dependent manipulation of their specific O-GlcNAcylation level.

HTN-CK2α = HTN-CK2α (Homo sapiens, UniProt P68400); assay: Immunoblot of HTN-CK2α O-GlcNAcylation in HeLa cells; conditions: 125 nM, 8 h
Experimental: FIG. 12: Immunoblotting analysis of effects of OGTAC-1 on HTN-CK2αin HeLa cell line. HeLa cells were transfected with fOGT:HTN-CK2α=1:0.1 for 24 h, followed by treatment of OGTAC-1 (125 nM) or other probes for 8 h. For OGTAC-1H, ‘++’ denotes 10-fold concentration of OGTAC-1, while “+” denote the same concentration of OGTAC-1. The quantification was conducted by immunoblot signal of RL2 relative to CK2α. as the mean±s.e.m. of n=3 biologically independent experiments. Statistical significance was calculated by unpaired t-tests.
S347 is a well-defined O-GlcNAcylation site on CK2α, while S348 is the potential alternative site as it is adjacent to S347. To verify the O-GlcNAc sites induced by OGTAC-1 in HTN-CK2α. we constructed HTN-CK2α plasmids with S347A and S347A/S348A mutations. […] Collectively, these findings support the physiological relevance of O-GlcNAcylation induced by OGTAC-1.

[2] = test system: cellular global O-GlcNAc level; assay: Global (pan-RL2) O-GlcNAc level by immunoblot
From the text: After illustrating the potency and generality of the OGTAC strategy, we then assessed its specificity towards the global O-GlcNAc proteome. We quantified the total pan-O-GlcNAc level (except for the specific band for target POI) using immunoblotting. For well-validated OGT substrates such as CK2α relatively low fOGT protein amount is sufficient to facilitate the inducing effect of our OGTAC-1. […] HTN-BRD4:fOGT=1:0.01 condition is not sufficient for OGTAC to exert inducing effects even though ternary complex was formed (FIG. 15). We hypothesize that an optimal threshold of OGT protein levels is required for efficient O-GlcNAc transfer to BRD4. To address the trade-off between potency and specificity on BRD4, we developed a truncated fOGT system. The tetratricopeptide repeat (TPR) domain of fOGT is responsible for substrate recognition; truncation of TPR domain can reduce its activity towards protein substrates. We therefore constructed and compared several truncated fOGT (tfOGT) plasmids.
as §1

T1 sequence (P62942 whole entry F37V, stated change not applied, other chains not shown, the tested form may be a part): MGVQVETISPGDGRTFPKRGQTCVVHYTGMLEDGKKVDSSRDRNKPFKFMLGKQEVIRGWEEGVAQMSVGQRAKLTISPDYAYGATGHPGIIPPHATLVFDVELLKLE
Sequence of HTN-CK2α (P68400 with tags, fused parts or gaps): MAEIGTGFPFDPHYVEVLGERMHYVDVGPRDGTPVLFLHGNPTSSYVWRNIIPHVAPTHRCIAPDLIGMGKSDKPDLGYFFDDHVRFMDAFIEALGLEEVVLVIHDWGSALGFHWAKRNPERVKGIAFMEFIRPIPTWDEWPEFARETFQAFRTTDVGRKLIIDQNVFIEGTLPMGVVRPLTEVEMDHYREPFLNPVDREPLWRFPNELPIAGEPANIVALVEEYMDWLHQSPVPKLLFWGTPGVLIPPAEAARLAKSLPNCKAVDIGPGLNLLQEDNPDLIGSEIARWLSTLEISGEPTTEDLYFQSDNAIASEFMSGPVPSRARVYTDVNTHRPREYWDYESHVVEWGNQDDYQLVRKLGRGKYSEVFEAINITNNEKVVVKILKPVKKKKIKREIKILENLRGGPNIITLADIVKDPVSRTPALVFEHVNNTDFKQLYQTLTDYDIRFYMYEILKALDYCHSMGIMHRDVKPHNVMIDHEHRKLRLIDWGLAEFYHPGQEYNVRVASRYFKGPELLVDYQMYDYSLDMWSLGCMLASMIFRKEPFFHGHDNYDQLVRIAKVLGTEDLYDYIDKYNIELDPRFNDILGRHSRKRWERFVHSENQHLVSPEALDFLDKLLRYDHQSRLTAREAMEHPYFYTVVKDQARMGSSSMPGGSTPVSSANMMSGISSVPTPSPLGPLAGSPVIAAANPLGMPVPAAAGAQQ
Sequence of HTN-CK2α (P62942+O15294 fused P62942:F37V partner): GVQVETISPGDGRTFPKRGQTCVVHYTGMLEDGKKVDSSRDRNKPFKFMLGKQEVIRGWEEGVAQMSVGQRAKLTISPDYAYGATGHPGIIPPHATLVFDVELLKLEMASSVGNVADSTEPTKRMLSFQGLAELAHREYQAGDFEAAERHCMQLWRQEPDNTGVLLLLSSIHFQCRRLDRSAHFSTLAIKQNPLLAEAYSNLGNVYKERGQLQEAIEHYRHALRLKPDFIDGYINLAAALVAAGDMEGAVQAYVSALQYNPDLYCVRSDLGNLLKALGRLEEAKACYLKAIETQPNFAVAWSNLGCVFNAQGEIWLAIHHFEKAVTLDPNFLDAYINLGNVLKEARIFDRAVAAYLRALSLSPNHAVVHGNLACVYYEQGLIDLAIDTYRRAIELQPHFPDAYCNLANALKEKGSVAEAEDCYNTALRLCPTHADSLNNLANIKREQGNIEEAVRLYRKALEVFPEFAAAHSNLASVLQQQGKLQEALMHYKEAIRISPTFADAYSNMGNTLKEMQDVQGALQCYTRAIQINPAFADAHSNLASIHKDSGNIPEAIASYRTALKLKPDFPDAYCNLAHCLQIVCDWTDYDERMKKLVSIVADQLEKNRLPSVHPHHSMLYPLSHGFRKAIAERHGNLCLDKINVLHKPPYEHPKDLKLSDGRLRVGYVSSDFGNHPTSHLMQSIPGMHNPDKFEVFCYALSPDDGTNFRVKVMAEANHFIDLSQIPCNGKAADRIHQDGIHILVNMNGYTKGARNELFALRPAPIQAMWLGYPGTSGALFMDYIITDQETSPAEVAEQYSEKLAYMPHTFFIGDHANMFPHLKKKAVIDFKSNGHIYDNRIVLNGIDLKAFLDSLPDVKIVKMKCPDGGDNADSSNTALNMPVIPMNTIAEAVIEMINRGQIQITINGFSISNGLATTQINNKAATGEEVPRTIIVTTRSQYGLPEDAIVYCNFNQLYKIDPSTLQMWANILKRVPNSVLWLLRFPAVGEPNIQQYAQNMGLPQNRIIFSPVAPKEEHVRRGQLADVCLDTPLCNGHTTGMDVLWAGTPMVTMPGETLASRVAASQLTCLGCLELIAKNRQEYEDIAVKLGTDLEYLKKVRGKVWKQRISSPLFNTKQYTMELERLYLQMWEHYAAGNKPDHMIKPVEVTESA
T2 sequence (P62942 whole entry F37V, the tested form may be a part): as the sequence (P62942 whole entry F37V, stated change not applied, other chains not shown, the tested form may be a part) above

SMILES	efficacy as O-GlcNAcylation inducer (HTN-BRD4)	fold increase of RL2 signal of BRD4 (HTN-BRD4; 640 nM, 2 h)	fold increase of RL2 signal of BRD4 (HTN-BRD4; 640 nM, 4 h)	HTN-BRD4 O-GlcNAcylation inducing potency (HTN-BRD4; 5 μM, 4 h)	concentration from which inducing effect declined (hook effect) (HTN-BRD4; 4 h)	region of induced HTN-BRD4 O-GlcNAcylation (HTN-BRD4)	ΔTm at 5 µM [1]	O-GlcNAcylation level of endogenous CK2α (endogenous CK2α)	O-GlcNAcylation-inducing effect on HTN-EZH2 (HTN-EZH2)	effect on HTN-CK2α in HeLa cells (HTN-CK2α)	cellular global O-GlcNAc level ([2]; 125 nM, HTN-CK2α:fOGT=1:0.01)	pan-RL2 level ([2]; HTN-BRD4:fOGT system, dose-response, 4 h)	time at which O-GlcNAcylation of HTN-BRD4 was induced (HTN-BRD4; 640 nM)	time of peak induction of HTN-BRD4 O-GlcNAcylation (HTN-BRD4; 640 nM, longest time point)	lowest concentration promoting BRD4 O-GlcNAcylation and ternary complex (HTN-BRD4; 4 h, 3 nM conducted once)	O-GlcNAcylation inducing effect on HTN-BRD4 (HTN-BRD4; HTN-BRD4:fOGT=1:0.01 system)	global O-GlcNAc level ([2]; 0tfOGT:HTN-BRD4 system)	global O-GlcNAc levels during reversibility study ([2]; HTN-BRD4:0tfOGT, washout study)
CC[C@H](C(=O)N1CCCC[C@H]1C(=O)O[C@H](CCc1ccc(OC)c(OC)c1)c1cccc(OCC(=O)NCCOCCOCCCCCCCl)c1)c1cc(OC)c(OC)c(OC)c1 [OGTAC-1, (R)-1-(3-(2-((2-(2-((6-chlorohexyl)oxy)ethoxy)ethyl)amino)-2-oxoethoxy)phenyl)-3-(3,4-dimethoxyphenyl)propyl (S)-1-((S)-2-(3,4,5-trimethoxyphenyl)butanoyl) piperidine-2-carboxylate]	submicromolar efficacy	2.5 fold	around 2.8 fold	best O-GlcNAcylation inducing potency among three OGTACs; also recorded: outstanding potency	1.6 µM	C-terminal region (S1367-F1224)	1.4 °C	did not alter	highest O-GlcNAcylation-inducing effects among the three OGTACs	confirmed the effect	not significantly changed	not affected						
CC[C@H](C(=O)N1CCCC[C@H]1C(=O)O[C@H](CCc1ccc(OC)c(OC)c1)c1cccc(OCC(=O)NCCCCCCNC(=O)C[C@@H]2N=C(c3ccc(Cl)cc3)c3c(sc(C)c3C)-n3c(C)nnc32)c1)c1cc(OC)c(OC)c(OC)c1 [OGTAC-4, (R)-1-(3-(2-((6-(2-((S)-4-(4-chlorophenyl)-2,3,9-trimethyl-6H-thieno[3,2-f[]8 1,2,4]triazolo[4,3-a][1,4]diazepin-6-yl)acetamido)hexyl)amino)-2-oxoethoxy)phenyl)-3-(3,4-dimethoxyphenyl)propyl (S)-1-((S)-2-(3,4,5-trimethoxyphenyl)butanoyl)piperidine-2-carboxylate]	submicromolar efficacy					C-terminal region (S1367-F1224)							≤ 2 h	24 h	3 nM	No O-GlcNAcylation inducing effect	without disruption of global O-GlcNAc level	remained unchanged
